Our source for the IC50 values is patent publication EP1229025A1, “NOVEL QUINAZOLINE DERIVATIVES” (Japan Energy Corporation, priority 1999, dated 2001).

Each structure is given as a SMILES string.

The test system of the test is TNF-α production. As to the kind of experiment: TNF-α production inhibiting test using human PBMC (LPS stimulus, ELISA). Format: cell-based. To be noted: LPS 10 ng/ml, 16 hours, ELISA of culture supernatants. As for the experimental part: Example 145: TNF-α production inhibiting test using human PBMC (peripheral blood mononuclear cells)
Preparation of human PBMC
The blood of a healthy person was taken with a vacuum blood-collecting tube (Nipro neotube) and diluted up to two-fold with physiological saline (Otsuka Pharmaceuticals). To the diluted blood was added 6% dextran T-500 (prepared after dissolution in physiological saline (Otsuka Pharmaceuticals) and sterilization with an autoclave) so as to make a final concentration of 1%. The solution was subjected to tumble mixing and allowed to stand at room temperature for 30 minutes to precipitate the erythrocytes. The supernatant was collected and subjected to centrifugation at 20 °C and at 1,500 rpm for 10 minutes. The cells were suspended in 3 ml of RPMI1640 culture medium (Asahi Technogllas) and overlaid on the solution surface of 3 ml Lymphoprep (NYCOMED). Further, with 1.5 ml of RPMI1640 culture medium being added to the tube which had contained the cell suspension liquid, the cells attached to the tube, which had remained uncollected, were suspended for collection and overlaid on the Lymphoprep previously mentioned. This operation was repeated again. After centrifugation at 20 °C and at 2,000 rpm for 30 minutes, there was collected a fraction of peripheral blood mononuclear cells present in the boundary surface between the Lymphoprep and the RPMI1640 culture medium. The cells were washed twice with 10 ml RPMI1640 culture medium to remove the Lymphoprep and then suspended in a RPMI1640 culture medium added with 10% bovine fetal serum (IRVINE SCIENTIFIC), 100 U/ml penicillin and 100 µg/ml streptomycin (hereinafter referred to as cRPMI1640 culture medium). The number of the cells was measured by Tuerk dying, and the cells, after adjustment to 3 × 10^6 cells/ml, were planted in 100 µl/well on a 96-well plate (FALCON). The cells were cultured at 37 °C under 5%CO2 atmosphere for about 5 hours.
Induction of TNF-α production by LPS stimulus
LPS (E.coli 0111:B4, DIFCO), which had been prepared to 10 mg/ml with water and kept at -20, was diluted to 100 µg/ml with cRPMI1640 culture medium and subjected to sterile filtration. The 100 µg/ml LPS was diluted with cRPMI1640 culture medium to prepare 20 ng/ml LPS. A compound to be tested which was dissolved in DMSO at 1,000-fold concentration was diluted to 500-fold with cRPMI1640 culture medium containing 20 ng/ml LPS and added in 100 µl/well to the cells which had been planted on the previously mentioned 96-well plate (final concentration of LPS: 10 ng/ml). For use as the control group, the solutions were made by diluting DMSO of the same volume as in the test compounds with cRPMI1640 culture medium containing 20 ng/ml LPS, and they were added to the cells. These cells were cultured at 37 °C under 5%CO2 atmosphere for 16 hours.
Determination of TNF-α activity (ELISA method)
To the 96-well plate the mouse anti-human TNF-α antibody (prepared to 2 µg/ml with Coating buffer*^1) was added so as to make 100 µl/well and allowed to stand at 4 °C overnight. After 5-times washing with Wash buffer*^2 (300µl/well), the Blocking buffer*^3 was added to the solutions, which were allowed to stand 37 °C for 2 hours. The culture supernatants were diluted up to 5-fold in the plate (supernatant 20 µl being added to 80 µl of cRPMI1640 culture medium). Simultaneously, for using for a calibration curve, a series of dilution of recombinant human TNF-α was prepared arid allowed to stand 37 °C for 1 hour. After 5-times washing with Wash buffer (300 µl /well), biotinylated rabbit anti-human TNF-α antibody (prepared to 0.25 µg/ml with Antibody diluent*^4) was added so as to make 100 µl /well and allowed to stand at 37 °C for 1 hour. After 5-times washing with Wash buffer (300 µl /well), Streptavidin-Horseradish peroxidase(prepared to 1:4000 with Antibody diluent) was added to make 100 µl /well and allowed to stand at 37 °C for 15 minutes. […]
(ELISA stands for enzyme-linked immunosorbent assay.)

For orientation: IC50 means the concentration at which inhibition is half-maximal. Read a high IC50 as lower potency. For `O=[N+]([O-])c1cc2c(NCCc3ccc(Cl)cc3)ncnc2cc1N1CCNCC1` [Example 1, 4-[2-(4-chlorophenyl)ethylamino]-6-nitro-7-(piperazin-1-yl)quinazoline], the IC50 turned out to be 800 nM.

Turning to `O=[N+]([O-])c1cc2c(NCCc3ccc(Cl)cc3)ncnc2cc1N1CCCNCC1` [Example 2, 4-[2-(4-chlorophenyl)ethylamino]-7-(homopiperazin-1-yl)-6-nitroquinazoline], the half-inhibitory concentration (IC50) amounted to 2100 nM. The result for `CN1CCN(c2cc3ncnc(NCCc4ccc(Cl)cc4)c3cc2[N+](=O)[O-])CC1` [Example 3, 4-[2-(4-chlorophenyl)ethylamino]-7-(4-methylpiperazin-1-yl)-6-nitroquinazoline] reads 1400 nM. On to `O=[N+]([O-])c1cc2c(NCCc3ccc(Cl)cc3)ncnc2cc1N1CCN(CCO)CC1` [Example 5, 4-[2-(4-chlorophenyl)ethylamino]-7-[4-(2-hydroxyethyl)piperazin-1-yl)-6-nitroquinazoline], for which the IC50 is 1900 nM. This IC50 and that of the molecule before are within 1.5-fold of each other. In the case of `O=CN1CCN(c2cc3ncnc(NCCc4ccc(Cl)cc4)c3cc2[N+](=O)[O-])CC1` [Example 6, 4-[2-(4-chlorophenyl)ethylamino]-7-(4-formylpiperazin-1-yl)-6-nitroquinazoline] it was 2500 nM; in that of `NC1CCN(c2cc3ncnc(NCCc4ccc(Cl)cc4)c3cc2[N+](=O)[O-])CC1` [Example 8, 7-(4-aminopiperidin-1-yl)-4-[2-(4-chlorophenyl)ethylamino]-6-nitroquinazoline], 1400 nM; in that of `NCC1CCN(c2cc3ncnc(NCCc4ccc(Cl)cc4)c3cc2[N+](=O)[O-])CC1` [Example 9, 7-(4-aminomethylpiperidin-1-yl)-4-[2-(4-chlorophenyl)ethylamino]-6-nitroquinazoline], 1300 nM. The result for `O=[N+]([O-])c1cc2c(NCCc3ccccc3)ncnc2cc1N1CCNCC1` [Example 10, 6-nitro-4-[2-(phenyl)ethylamino]-7-(piperazin-1-yl)quinazoline] reads 400 nM. For `O=[N+]([O-])c1cc2c(NCc3ccccc3)ncnc2cc1N1CCNCC1` [Example 18, 4-(benzylamino)-6-nitro-7-(piperazin-1-yl)quinazoline], half-maximal inhibition (IC50) was put at 400 nM. Regarding `O=[N+]([O-])c1cc2c(NCc3ccc(F)cc3)ncnc2cc1N1CCNCC1` [Example 25, 4-(4-fluorobenzylamino)-6-nitro-7-(piperazin-1-yl)quinazoline], inhibition was half-maximal at 400 nM (IC50). This lies in the sub-micromolar range. Molecule `O=[N+]([O-])c1cc2c(NCCc3ccc(F)cc3)ncnc2cc1N1CCNCC1` [Example 37, 4-[2-(4-fluorophenyl)ethylamino]-6-nitro-7-(piperazin-1-yl)quinazoline] had a half-inhibitory concentration (IC50) of 600 nM. This IC50 lies about 1.5-fold higher than the previous one. As for `O=[N+]([O-])c1cc2c(NCCc3cccs3)ncnc2cc1N1CCNCC1` [Example 42, 6-nitro-7-(piperazin-1-yl)-4-[2-(2-thienyl)ethylamino]quinazoline], the IC50 was 500 nM. The IC50 values of the last two molecules are within 1.5-fold of each other.

In the case of `O=[N+]([O-])c1cc2c(NCCCc3ccccc3)ncnc2cc1N1CCNCC1` [Example 54, 6-nitro-4-[3-(phenyl)propylamino]-7-(piperazin-1-yl)quinazoline], the IC50 was 400 nM. `O=[N+]([O-])c1cc2c(NCCc3ccccn3)ncnc2cc1N1CCNCC1` [Example 56, 6-nitro-7-(piperazin-1-yl)-4-[2-(2-pyridyl)ethylamino]quinazoline] came in with a 50% inhibitory concentration (IC50) of 1100 nM. `O=[N+]([O-])c1cc2c(NCCc3cccnc3)ncnc2cc1N1CCNCC1` [Example 57, 6-nitro-7-(piperazin-1-yl)-4-[2-(3-pyridyl)ethylamino]quinazoline] gave a half-inhibitory concentration (IC50) of 2300 nM. In the case of `O=[N+]([O-])c1cc2c(NCCc3ccncc3)ncnc2cc1N1CCNCC1` [Example 58, 6-nitro-7-(piperazin-1-yl)-4-[2-(4-pyridyl)ethylamino]quinazoline] it was 3500 nM; in that of `O=[N+]([O-])c1cc2c(NCc3cccc4ccccc34)ncnc2cc1N1CCNCC1` [Example 59, 4-[(1-naphthyl)methylamino]-6-nitro-7-(piperazin-1-yl)quinazoline], 500 nM; in that of `O=[N+]([O-])c1cc2c(NCc3ccc(Cl)cc3)ncnc2cc1N1CCNCC1` [Example 60, 4-(4-chlorobenzylamino)-6-nitro-7-(piperazin-1-yl)quinazoline], 600 nM.

On to `O=[N+]([O-])c1cc2c(NCc3ccc(C(F)(F)F)cc3)ncnc2cc1N1CCNCC1` [Example 63, 6-nitro-7-(piperazin-1-yl)-4-[4-(1,1,1-trifluoiomethyl)benzylamino]quinazoline], for which inhibition was half-maximal at 1600 nM (IC50).

`Cc1ccc(CNc2ncnc3cc(N4CCNCC4)c([N+](=O)[O-])cc23)cc1` [Example 64, 4-(4-methylbenzylamino)-6-nitro-7-(piperazin-1-yl)quinazoline]: inhibition was half-maximal at 400 nM (IC50). As for `COc1ccccc1CNc1ncnc2cc(N3CCNCC3)c([N+](=O)[O-])cc12` [Example 65, 4-(2-methoxylbenzylamino)-6-nitro-7-(piperazin-1-yl)quinazoline], the IC50 turned out to be 1200 nM. Against the preceding molecule, the IC50 is about 3-fold higher. Molecule `COc1cccc(CNc2ncnc3cc(N4CCNCC4)c([N+](=O)[O-])cc23)c1` [Example 66, 4-(3-methoxylbenzylamino)-6-nitro-7-(piperazin-1-yl)quinazoline] gave a 50% inhibitory concentration (IC50) of 700 nM. Molecule `COc1ccc(CNc2ncnc3cc(N4CCNCC4)c([N+](=O)[O-])cc23)cc1` [Example 67, 4-(4-methoxylbenzylamino)-6-nitro-7-(piperazin-1-yl)quinazoline] registered a half-maximal inhibitory concentration (IC50) of 300 nM. Regarding `COc1ccc(CNc2ncnc3cc(N4CCNCC4)c([N+](=O)[O-])cc23)cc1OC` [Example 68, 4-(3,4-dimethoxylbenzylamino)-6-nitro-7-(piperazin-1-yl)quinazoline], the concentration for half-maximal inhibition (IC50) came out at 2400 nM. Regarding `COc1cc(CNc2ncnc3cc(N4CCNCC4)c([N+](=O)[O-])cc23)cc(OC)c1OC` [Example 69, 6-nitro-7-(piperazin-1-yl)-4-(3,4,5-trimethoxylbenzylamino)quinazoline], the IC50 came out at 1800 nM. In the case of `O=[N+]([O-])c1cc2c(NCCc3ccccc3Cl)ncnc2cc1N1CCNCC1` [Example 70, 4-[2-(2-chlorophenyl)ethylamino]-6-nitro-7-(piperazin-1-yl)quinazoline] it was 600 nM; in that of `O=[N+]([O-])c1cc2c(NCCc3cccc(Cl)c3)ncnc2cc1N1CCNCC1` [Example 71, 4-[2-(3-chlorophenyl)ethylamino]-6-nitro-7-(piperazin-1-yl)quinazoline], 600 nM. `O=[N+]([O-])c1cc2c(NCCc3ccc(Br)cc3)ncnc2cc1N1CCNCC1` [Example 72, 4-[2-(4-bromophenyl)ethylamino]-6-nitro-7-(piperazin-1-yl)quinazoline] gave a 50% inhibitory concentration (IC50) of 400 nM. This IC50 is about 1.5-fold lower than that of the molecule before. Take `Cc1ccc(CCNc2ncnc3cc(N4CCNCC4)c([N+](=O)[O-])cc23)cc1` [Example 75, 4-[2-(4-methylphenyl)ethylamino]-6-nitro-7-(piperazin-1-yl)quinazoline]: the half-inhibitory concentration (IC50) is 1900 nM. In the case of `COc1ccc(CCNc2ncnc3cc(N4CCNCC4)c([N+](=O)[O-])cc23)cc1` [Example 78, 4-[2-(4-methoxyphenyl)ethylamino]-6-nitro-7-(piperazin-1-yl)quinazoline] it was 1100 nM. `COc1ccc(CCNc2ncnc3cc(N4CCNCC4)c([N+](=O)[O-])cc23)cc1OC` [Example 79, 4-[2-(3,4-dimethoxyphenyl)ethylamino]-6-nitro-7-(piperazin-1-yl)quinazoline] registered a concentration for half-maximal inhibition (IC50) of 2300 nM. This IC50 is about 2.1-fold higher than that of the molecule before.
